Results from the NIST ThermoML archive (doi:10.1021/je700260f).
“And” between values parts separate entries of the source, which are not always exact repeats. Identical values can stand only once.

Conditions: Liquid, Vibrating tube method

FC(C(F)(F)F)C(F)(F)F [1,1,1,2,3,3,3-heptafluoropropane]
Conditions	mass density
323.15 K, 24369 kPa	1441.6 kg/m3
323.15 K, 24448 kPa	1441.9 kg/m3
323.15 K, 24476 kPa	1442 kg/m3
323.15 K, 24507 kPa	1442.1 kg/m3
323.15 K, 24535 kPa	1442.3 kg/m3
323.15 K, 24630 kPa	1442.7 kg/m3
323.15 K, 25178 kPa	1445.1 kg/m3
323.15 K, 25221 kPa	1445.2 kg/m3
323.15 K, 25254 kPa	1445.3 kg/m3
323.15 K, 25279 kPa	1445.5 kg/m3
323.15 K, 25317 kPa	1445.6 kg/m3
323.15 K, 25347 kPa	1445.8 kg/m3
323.15 K, 25380 kPa	1445.9 kg/m3
323.15 K, 25479 kPa	1446.3 kg/m3
323.15 K, 25518 kPa	1446.5 kg/m3
323.15 K, 25548 kPa	1446.5 kg/m3
323.15 K, 25582 kPa	1446.8 kg/m3
323.15 K, 25619 kPa	1447 kg/m3
323.15 K, 25648 kPa	1447.1 kg/m3
323.15 K, 25678 kPa	1447.1 kg/m3
323.15 K, 25713 kPa	1447.3 kg/m3
323.15 K, 25743 kPa	1447.4 kg/m3
323.15 K, 25772 kPa	1447.5 kg/m3
323.15 K, 25810 kPa	1447.7 kg/m3
323.15 K, 25835 kPa	1447.8 kg/m3
323.15 K, 25868 kPa	1447.9 kg/m3
323.15 K, 25896 kPa	1448 kg/m3
323.15 K, 25923 kPa	1448.1 kg/m3
323.15 K, 26006 kPa	1448.7 kg/m3
323.15 K, 26035 kPa	1448.7 kg/m3
323.15 K, 26099 kPa	1449 kg/m3
323.15 K, 26134 kPa	1449.1 kg/m3
323.15 K, 26161 kPa	1449.1 kg/m3
323.15 K, 26196 kPa	1449.4 kg/m3
323.15 K, 26255 kPa	1449.6 kg/m3
323.15 K, 26288 kPa	1449.7 kg/m3
323.15 K, 27476 kPa	1454.6 kg/m3
323.15 K, 27515 kPa	1454.7 kg/m3
323.15 K, 27549 kPa	1454.9 kg/m3
323.15 K, 27579 kPa	1455 kg/m3
323.15 K, 27618 kPa	1455.2 kg/m3
323.15 K, 27658 kPa	1455.4 kg/m3
323.15 K, 27685 kPa	1455.4 kg/m3
323.15 K, 27721 kPa	1455.7 kg/m3
323.15 K, 27748 kPa	1455.7 kg/m3
323.15 K, 27786 kPa	1455.9 kg/m3
323.15 K, 27821 kPa	1456 kg/m3
323.15 K, 27852 kPa	1456 kg/m3
323.15 K, 27887 kPa	1456.3 kg/m3
323.15 K, 27918 kPa	1456.3 kg/m3
323.15 K, 27943 kPa	1456.5 kg/m3
323.15 K, 27982 kPa	1456.6 kg/m3
323.15 K, 28017 kPa	1456.8 kg/m3
323.15 K, 28049 kPa	1456.7 kg/m3
323.15 K, 28080 kPa	1457 kg/m3
323.15 K, 28115 kPa	1457.1 kg/m3
323.15 K, 28148 kPa	1457.2 kg/m3
323.15 K, 28180 kPa	1457.4 kg/m3
323.15 K, 28217 kPa	1457.6 kg/m3
323.15 K, 28245 kPa	1457.7 kg/m3
323.15 K, 28276 kPa	1457.9 kg/m3
323.15 K, 28309 kPa	1457.9 kg/m3
323.15 K, 28337 kPa	1458 kg/m3
323.15 K, 28375 kPa	1458.1 kg/m3
323.15 K, 28403 kPa	1458.3 kg/m3
323.15 K, 28445 kPa	1458.5 kg/m3
323.15 K, 28474 kPa	1458.6 kg/m3
323.15 K, 28506 kPa	1458.7 kg/m3
323.15 K, 28534 kPa	1458.7 kg/m3
323.15 K, 28571 kPa	1459 kg/m3
323.15 K, 28603 kPa	1459.1 kg/m3
323.15 K, 28633 kPa	1459.2 kg/m3
323.15 K, 28660 kPa	1459.4 kg/m3
323.15 K, 28691 kPa	1459.5 kg/m3
323.15 K, 28718 kPa	1459.6 kg/m3
323.15 K, 28763 kPa	1459.8 kg/m3
323.15 K, 28799 kPa	1459.9 kg/m3
323.15 K, 28837 kPa	1459.9 kg/m3
323.15 K, 28870 kPa	1460.1 kg/m3
323.15 K, 28904 kPa	1460.2 kg/m3
323.15 K, 28935 kPa	1460.4 kg/m3
323.15 K, 28970 kPa	1460.5 kg/m3
323.15 K, 28997 kPa	1460.6 kg/m3
323.15 K, 29033 kPa	1460.8 kg/m3
323.15 K, 29063 kPa	1460.9 kg/m3
323.15 K, 29088 kPa	1460.9 kg/m3
323.15 K, 29121 kPa	1461.1 kg/m3
323.15 K, 29162 kPa	1461.2 kg/m3
323.15 K, 29188 kPa	1461.4 kg/m3
323.15 K, 29756 kPa	1463.5 kg/m3
323.15 K, 29784 kPa	1463.7 kg/m3
323.15 K, 29822 kPa	1463.8 kg/m3
323.15 K, 29860 kPa	1464 kg/m3
323.15 K, 29886 kPa	1464 kg/m3
323.15 K, 29919 kPa	1464.2 kg/m3
323.15 K, 29949 kPa	1464.3 kg/m3
323.15 K, 30616 kPa	1466.8 kg/m3
323.15 K, 30653 kPa	1467 kg/m3
323.15 K, 30689 kPa	1467.1 kg/m3
323.15 K, 30736 kPa	1467.2 kg/m3
323.15 K, 30764 kPa	1467.3 kg/m3
323.15 K, 30805 kPa	1467.5 kg/m3
323.15 K, 30843 kPa	1467.7 kg/m3
323.15 K, 30885 kPa	1467.8 kg/m3
323.15 K, 32658 kPa	1474.5 kg/m3
323.15 K, 32686 kPa	1474.5 kg/m3
323.15 K, 34384 kPa	1480.6 kg/m3
323.15 K, 34387 kPa	1480.4 kg/m3 and 1480.6 kg/m3
323.16 K, 14143 kPa	1389.6 kg/m3
323.16 K, 14163 kPa	1389.5 kg/m3
323.16 K, 14186 kPa	1389.6 kg/m3
323.16 K, 14200 kPa	1389.8 kg/m3
323.16 K, 14366 kPa	1390.8 kg/m3
323.16 K, 14386 kPa	1390.8 kg/m3
323.16 K, 14409 kPa	1390.9 kg/m3
323.16 K, 14427 kPa	1391.1 kg/m3
323.16 K, 14450 kPa	1391.3 kg/m3
323.16 K, 14470 kPa	1391.5 kg/m3
323.16 K, 14492 kPa	1391.6 kg/m3
323.16 K, 14509 kPa	1391.5 kg/m3
323.16 K, 16696 kPa	1404.2 kg/m3
323.16 K, 16719 kPa	1404.2 kg/m3
323.16 K, 16735 kPa	1404.5 kg/m3
323.16 K, 16783 kPa	1404.5 kg/m3
323.16 K, 29984 kPa	1464.4 kg/m3
323.16 K, 30010 kPa	1464.6 kg/m3
323.16 K, 30040 kPa	1464.7 kg/m3
323.16 K, 30071 kPa	1464.8 kg/m3
323.16 K, 30102 kPa	1464.9 kg/m3
323.16 K, 30132 kPa	1465 kg/m3
323.16 K, 30163 kPa	1465.1 kg/m3
323.16 K, 30194 kPa	1465.2 kg/m3
323.16 K, 30221 kPa	1465.4 kg/m3
323.16 K, 30252 kPa	1465.5 kg/m3
323.16 K, 30280 kPa	1465.6 kg/m3
323.16 K, 30311 kPa	1465.6 kg/m3
323.16 K, 30340 kPa	1465.8 kg/m3
323.16 K, 30380 kPa	1466 kg/m3
323.16 K, 30414 kPa	1466.1 kg/m3
323.16 K, 30444 kPa	1466.3 kg/m3
323.16 K, 30470 kPa	1466.4 kg/m3
323.16 K, 30505 kPa	1466.5 kg/m3
323.16 K, 30532 kPa	1466.6 kg/m3
323.16 K, 30554 kPa	1466.6 kg/m3
323.16 K, 30581 kPa	1466.8 kg/m3
333.13 K, 1640 kPa	1225.8 kg/m3
333.13 K, 1661 kPa	1226.3 kg/m3
333.13 K, 1691 kPa	1226.6 kg/m3
333.13 K, 1709 kPa	1227.1 kg/m3
333.13 K, 1736 kPa	1227.6 kg/m3
333.13 K, 1764 kPa	1228 kg/m3
333.13 K, 1789 kPa	1228.4 kg/m3
333.13 K, 1815 kPa	1229 kg/m3
333.13 K, 1839 kPa	1229.7 kg/m3
333.13 K, 1866 kPa	1229.9 kg/m3
333.13 K, 1898 kPa	1230.4 kg/m3
333.13 K, 1924 kPa	1231 kg/m3
333.13 K, 1944 kPa	1231.2 kg/m3
333.13 K, 1976 kPa	1231.8 kg/m3
333.13 K, 2004 kPa	1232.3 kg/m3
333.13 K, 2034 kPa	1232.9 kg/m3
333.13 K, 2056 kPa	1233.2 kg/m3
333.13 K, 2088 kPa	1233.7 kg/m3
333.13 K, 2113 kPa	1234.2 kg/m3
333.13 K, 2138 kPa	1234.6 kg/m3
333.13 K, 2357 kPa	1238.4 kg/m3
333.13 K, 2604 kPa	1242.4 kg/m3
333.13 K, 2744 kPa	1244.5 kg/m3
333.13 K, 2770 kPa	1244.9 kg/m3
333.13 K, 2793 kPa	1245.1 kg/m3
333.13 K, 2828 kPa	1245.9 kg/m3
333.13 K, 2863 kPa	1246.2 kg/m3
333.13 K, 2890 kPa	1246.6 kg/m3
333.13 K, 2915 kPa	1247.1 kg/m3
333.13 K, 2950 kPa	1247.6 kg/m3
333.13 K, 3233 kPa	1251.7 kg/m3
333.13 K, 3261 kPa	1252.3 kg/m3
333.13 K, 3298 kPa	1252.9 kg/m3
333.13 K, 3326 kPa	1253.1 kg/m3
333.13 K, 3358 kPa	1253.7 kg/m3
333.13 K, 3391 kPa	1254.2 kg/m3
333.13 K, 3420 kPa	1254.6 kg/m3
333.13 K, 3448 kPa	1255 kg/m3
333.13 K, 3488 kPa	1255.4 kg/m3
333.13 K, 3517 kPa	1256 kg/m3
333.13 K, 3542 kPa	1256.2 kg/m3
333.13 K, 3575 kPa	1256.7 kg/m3
333.13 K, 3608 kPa	1257.2 kg/m3
333.13 K, 3641 kPa	1257.6 kg/m3
333.13 K, 3670 kPa	1258.2 kg/m3
333.13 K, 3699 kPa	1258.5 kg/m3
333.13 K, 3726 kPa	1258.9 kg/m3
333.13 K, 3767 kPa	1259.4 kg/m3
333.13 K, 3793 kPa	1259.7 kg/m3
333.13 K, 3826 kPa	1260.3 kg/m3
333.13 K, 3860 kPa	1260.8 kg/m3
333.13 K, 3894 kPa	1261.2 kg/m3
333.13 K, 3924 kPa	1261.5 kg/m3
333.13 K, 3950 kPa	1261.9 kg/m3
333.13 K, 3984 kPa	1262.2 kg/m3
333.13 K, 4010 kPa	1262.9 kg/m3
333.13 K, 4041 kPa	1263.1 kg/m3
333.13 K, 4072 kPa	1263.5 kg/m3
333.13 K, 4105 kPa	1264 kg/m3
333.13 K, 4143 kPa	1264.4 kg/m3
